Measurements published in ChEMBL document CHEMBL4219097, “Synthesis of 3-aza[4.4.3]propellanes with high σ1 receptor affinity” (Bioorg Med Chem, 2018).

Key:
[1] = molecular target: Sigma non-opioid intracellular receptor 1 (Cavia porcellus, UniProt Q60492); test: Displacement of [3H]-(+)-pentazocine from sigma1 receptor in guinea pig brain cortex membranes measured after 120 mins by scintillation counting method; type: cell membranes
[2] = Selectivity ratio of Ki for displacement of [3H]DTG from sigma 2 receptor in rat liver membranes to Ki for displacement of [3H]-(+)-pentazocine from sigma1 receptor in guinea pig brain cortex membranes; type: cell membranes
[3] = molecular target: T1, Sigma intracellular receptor 2 (Rattus norvegicus, UniProt Q5U3Y7); test: Displacement of [3H]DTG from sigma 2 receptor in rat liver membranes measured after 120 mins by scintillation counting method; type: cell membranes, Membrane
T1 sequence (Q5U3Y7 whole entry): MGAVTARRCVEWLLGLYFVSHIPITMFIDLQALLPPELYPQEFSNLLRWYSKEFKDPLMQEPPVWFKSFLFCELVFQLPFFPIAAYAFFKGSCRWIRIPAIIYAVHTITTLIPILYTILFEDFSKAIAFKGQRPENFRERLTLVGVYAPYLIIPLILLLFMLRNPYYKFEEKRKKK

[4] = molecular target: T2, Sigma intracellular receptor 2 (Rattus norvegicus) (UniProt Q5U3Y7); test: Displacement of [3H]DTG from sigma 2 receptor in rat liver membranes at 1 uM measured after 120 mins by scintillation counting method; type: cell membranes; details: Membrane
T2 sequence (whole entry): T1 sequence (Q5U3Y7 whole entry)

[5] = molecular target: Sigma non-opioid intracellular receptor 1 (Cavia porcellus) (UniProt Q60492); test: Displacement of [3H]-(+)-pentazocine from sigma1 receptor in guinea pig brain cortex membranes at 1 uM measured after 120 mins by scintillation counting method; type: cell membranes
Sequence of Sigma non-opioid intracellular receptor 1 (Cavia porcellus) (Q60492 whole entry): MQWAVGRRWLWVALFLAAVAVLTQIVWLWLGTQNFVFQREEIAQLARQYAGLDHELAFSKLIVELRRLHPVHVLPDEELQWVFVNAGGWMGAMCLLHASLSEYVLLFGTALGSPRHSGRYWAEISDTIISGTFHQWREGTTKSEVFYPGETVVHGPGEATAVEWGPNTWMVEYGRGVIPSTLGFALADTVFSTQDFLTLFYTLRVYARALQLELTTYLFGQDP

Sequence of Sigma non-opioid intracellular receptor 1 (Q60492 whole entry): as above

Row | Compound | Ki [1] [nM] | Ratio Ki [2] | Ki [3] [nM] | inhibition [4] [%] | inhibition [5] [%]
1 | c1ccc(CN2CCC34CCCCC3(CCC4)C2)cc1 (racemic) | 17 | 11 | 190 | – | –
2 | OC1CC23CCCCC2(C1)CN(Cc1ccccc1)CC3 (racemic; anti) [listing 1 of 2 here] | 122 | – | 2040 | – | –
3 | OC1CC23CCCCC2(C1)CN(Cc1ccccc1)CC3 (racemic; anti) [listing 2 of 2 here] | – | 17 | – | – | –
4 | OC1CC23CCCCC2(C1)CN(Cc1ccccc1)CC3 (racemic; syn) [listing 1 of 2 here] | 336 | – | 690 | – | –

Second part, the molecule after the results:

Row | Ki [1] [nM] | Ratio Ki [2] | Ki [3] [nM] | inhibition [4] [%] | inhibition [5] [%] | Compound
5 | 82 | – | – | – | – | COc1ccc(C)cc1NC(=O)OC1CC23CCCCC2(C1)CN(Cc1ccccc1)CC3 (racemic; anti) [listing 1 of 2 here]
6 | – | > 12 | – | 8 | – | COc1ccc(C)cc1NC(=O)OC1CC23CCCCC2(C1)CN(Cc1ccccc1)CC3 (racemic; anti) [listing 2 of 2 here]
7 | – | – | – | 0 | 12 | COc1ccc(C)cc1NC(=O)OC1CC23CCCCC2(C1)CN(Cc1ccccc1)CC3 (racemic; syn)
8 | – | 2 | – | – | – | OC1CC23CCCCC2(C1)CN(Cc1ccccc1)CC3 (racemic; syn) [listing 2 of 2 here]
